Experimental data reported in ChEMBL document CHEMBL3779868, “Tetrahydroprotoberberine alkaloids with dopamine and σ receptor affinity” (Bioorg Med Chem, 2016).
pIC50, pKi: −log10 of the molar value.

What was measured:
D(3) dopamine receptor [1] = target: T1, D(3) dopamine receptor (Homo sapiens, UniProt P35462); experiment: Displacement of [3H]N-methylspiperone from human dopamine D3 receptor by PDSP assay
D(1A) dopamine receptor = D(1A) dopamine receptor (Homo sapiens, UniProt P21728); experiment: Displacement of [3H][…] from human dopamine D1 receptor by PDSP assay
[2] = target: Sigma non-opioid intracellular receptor 1 (Homo sapiens, UniProt Q99720); experiment: Displacement of [3H](+)-pentazocine from human sigma1 receptor by PDSP assay
D(2) dopamine receptor [3] = target: T2, D(2) dopamine receptor (Homo sapiens, UniProt P14416); experiment: Displacement of [3H]N-methylspiperone from human dopamine D2 receptor by PDSP assay; conditions: for pKi: read-out: Ki
[4] = Displacement of [3H]DTG from human sigma2 receptor by PDSP assay
Homo sapiens [5] = organism: Homo sapiens; experiment: Selectivity ratio of Ki for human sigma1 receptor to human sigma2 receptor
Homo sapiens [6] = organism: Homo sapiens; experiment: Selectivity ratio of Ki for human dopamine D3 receptor to human dopamine D1 receptor
Homo sapiens [7] = organism: Homo sapiens; experiment: Selectivity ratio of Ki for human dopamine D2 receptor to human dopamine D3 receptor
Homo sapiens [8] = organism: Homo sapiens; experiment: Selectivity ratio of Ki for human dopamine D2 receptor to human dopamine D1 receptor
D(3) dopamine receptor [9] = target: T1, D(3) dopamine receptor; experiment: Binding affinity to dopamine D3 receptor (unknown origin) by PDSP assay
[10] = Binding affinity to sigma2 receptor (unknown origin) by PDSP assay; parameters: species or system Homo sapiens
MDA-MB-231 = experiment: Cytotoxicity against human MDA-MB-231 cells assessed as cell viability after 24 hrs by Alamar blue assay; assay type: functional, cell-based; conditions: MDA-MB-231, 24 h
D(2) dopamine receptor [11] = target: T2, D(2) dopamine receptor; experiment: Displacement of [3H]N-methylspiperone from human dopamine D2 receptor at 50 uM by PDSP assay

Sigma non-opioid intracellular receptor 1, sequence (Q99720 whole entry): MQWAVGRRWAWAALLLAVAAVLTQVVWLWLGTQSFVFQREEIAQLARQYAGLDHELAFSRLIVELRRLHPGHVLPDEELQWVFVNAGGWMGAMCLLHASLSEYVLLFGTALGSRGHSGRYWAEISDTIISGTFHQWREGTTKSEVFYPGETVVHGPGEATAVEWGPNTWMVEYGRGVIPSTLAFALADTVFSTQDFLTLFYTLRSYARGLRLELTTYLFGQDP
D(1A) dopamine receptor, sequence (P21728 whole entry): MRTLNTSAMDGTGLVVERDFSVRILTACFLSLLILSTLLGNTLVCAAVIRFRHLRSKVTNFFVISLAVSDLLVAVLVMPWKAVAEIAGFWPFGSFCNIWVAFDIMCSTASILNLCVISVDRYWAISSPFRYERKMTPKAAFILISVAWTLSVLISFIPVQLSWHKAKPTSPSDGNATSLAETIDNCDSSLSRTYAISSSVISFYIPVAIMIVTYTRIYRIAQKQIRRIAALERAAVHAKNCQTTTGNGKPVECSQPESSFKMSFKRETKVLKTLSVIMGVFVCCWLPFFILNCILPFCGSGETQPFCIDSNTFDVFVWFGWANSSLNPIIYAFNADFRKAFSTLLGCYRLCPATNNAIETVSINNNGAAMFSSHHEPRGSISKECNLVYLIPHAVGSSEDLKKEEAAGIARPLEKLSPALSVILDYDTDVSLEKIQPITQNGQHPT
T2 sequence (P14416 whole entry): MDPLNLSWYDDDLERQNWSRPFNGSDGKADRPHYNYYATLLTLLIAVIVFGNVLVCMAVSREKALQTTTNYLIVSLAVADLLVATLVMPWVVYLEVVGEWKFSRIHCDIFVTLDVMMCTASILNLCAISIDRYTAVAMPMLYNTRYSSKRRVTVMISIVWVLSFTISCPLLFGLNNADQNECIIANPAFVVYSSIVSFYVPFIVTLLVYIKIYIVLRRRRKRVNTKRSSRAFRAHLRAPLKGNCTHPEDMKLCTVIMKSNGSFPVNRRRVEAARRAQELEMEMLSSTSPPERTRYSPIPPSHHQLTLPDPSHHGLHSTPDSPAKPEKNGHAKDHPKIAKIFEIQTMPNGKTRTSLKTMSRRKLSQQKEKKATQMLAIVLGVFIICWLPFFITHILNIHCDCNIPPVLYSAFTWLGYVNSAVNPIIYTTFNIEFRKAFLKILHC
T1 sequence (P35462 whole entry): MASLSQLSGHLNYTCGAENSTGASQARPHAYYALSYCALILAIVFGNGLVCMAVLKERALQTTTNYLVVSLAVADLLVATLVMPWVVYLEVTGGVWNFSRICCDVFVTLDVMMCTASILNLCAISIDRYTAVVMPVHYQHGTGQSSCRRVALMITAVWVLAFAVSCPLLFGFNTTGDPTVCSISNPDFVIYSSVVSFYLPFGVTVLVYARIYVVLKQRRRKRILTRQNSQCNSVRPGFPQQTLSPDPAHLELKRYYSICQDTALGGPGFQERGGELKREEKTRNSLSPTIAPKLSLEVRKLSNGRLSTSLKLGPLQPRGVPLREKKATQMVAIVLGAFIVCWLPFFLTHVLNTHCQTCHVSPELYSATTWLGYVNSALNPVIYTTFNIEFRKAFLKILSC

| Compound | pKi (D(3) dopamine receptor [1]) | pKi (D(1A) dopamine receptor) | pKi [2] | pKi (D(2) dopamine receptor [3]) | pKi [4] | Ratio Ki (Homo sapiens [5]) | Ratio Ki (Homo sapiens [6]) | Ratio Ki (Homo sapiens [7]) | Ratio Ki (Homo sapiens [8]) | pKi (D(3) dopamine receptor [9]) | pKi [10] | pIC50 (MDA-MB-231) | inhibition (D(2) dopamine receptor [11]) | Ki (D(2) dopamine receptor [3]) |
| --- | --- | --- | --- | --- | --- | --- | --- | --- | --- | --- | --- | --- | --- | --- |
| COc1cc2c(cc1O)C(C)N(Cc1cccc(O)c1OC)CC2 (stereo unspecified) | 5.86 | 6.08 | 6.89 | 5.96 | 6.52 |  |  |  |  |  |  |  |  |  |
| CCCCCOc1ccc2c(c1OC)CN1CCc3cc(OC)c(O)cc3C1C2 (stereo unspecified) | 7.00 | 7.72 | 6.92 | 6.55 | 7.01 | 1.22 | 5.3 | 2.8 | 14.9 |  |  |  |  |  |
| COc1cc2c(cc1O)C1Cc3ccc(OCCCO)c(OC)c3CN1CC2 (stereo unspecified) | 6.96 | 8.17 | 7.28 | 6.68 | 8.42 | 13.9 | 16.4 | 1.9 | 31.5 |  |  |  |  |  |
| COc1cc2c(cc1O)C1Cc3ccc(OCC4CC4)c(OC)c3CN1CC2 (stereo unspecified) |  | 7.92 | 7.92 |  | 8.62 |  |  |  |  |  |  |  |  |  |
| CCN(CCc1ccc(O)c(OC)c1)Cc1cccc(O)c1OC | 5.74 | < 5.00 | 6.46 | < 5.00 | 6.10 |  |  |  |  |  |  |  |  |  |
| COc1cc2c(cc1O)[C@@H]1Cc3ccc(O)c(OC)c3CN1CC2 [STEPHOLIDINE] |  |  |  |  |  |  |  |  |  | 7.52 | 7.27 |  |  |  |
| COc1cc2c(cc1O)C1Cc3ccc(OC)c(OC)c3CN1CC2 (stereo unspecified) | 7.43 |  |  |  | 9.00 |  |  |  |  |  |  | 3.75 |  |  |
| CCCOc1ccc2c(c1OC)CN1CCc3cc(OC)c(O)cc3C1C2 (stereo unspecified) | 7.28 | 8.11 | 7.24 | 7.00 | 8.17 |  |  |  |  |  |  |  |  |  |
| COc1cc2c(cc1O)C1Cc3ccc(O)c(OC)c3CN1CC2 (racemic) | 7.00 | 8.25 | 6.57 | 6.94 | 8.05 | 30 | 18 | 1.1 | 20.6 |  |  |  |  |  |
| COc1cc(CCN(C)Cc2cccc(O)c2OC)ccc1O | 5.57 | 5.51 | 6.91 | < 5.00 | 6.64 |  |  |  |  |  |  |  |  |  |
| CCCCCCOc1ccc2c(c1OC)CN1CCc3cc(OC)c(O)cc3C1C2 (stereo unspecified) | 6.66 | 7.40 | 7.43 |  | 6.97 | 0.35 | 5.5 |  |  |  |  |  | < 50% | Not Active |
| CCOc1ccc2c(c1OC)CN1CCc3cc(OC)c(O)cc3C1C2 (stereo unspecified) | 7.36 | 7.91 | 6.91 | 6.80 | 8.89 | 95 | 3.5 | 3.6 | 12.8 |  |  |  |  |  |
| CCCCOc1ccc2c(c1OC)CN1CCc3cc(OC)c(O)cc3C1C2 (stereo unspecified) | 7.19 |  | 7.89 | 6.92 | 7.31 |  |  |  |  |  |  |  |  |  |
